Measured values from patent publication US6914045B2, “Glycopeptide antibiotics” (Wyeth Holdings Corporation, priority 2001, dated 2005).
Converted amounts (≈) assume the structure as drawn. Square brackets hold non-standard residues; d marks the D form. Peptide text beside a SMILES is read from it. * marks the point of attachment. ξ: configuration not given here. ξEnduracididine(βξ-OH,4'ξ) = N=C1NCC(C(O)C(N)C(=O)O)N1; X2 = OCC1OC(OC2C(CO)OC(*)C(O)C2O)C(O)C(O)C1O

How the values were obtained:
Assay in all cases: in vitro antibacterial evaluation, MIC by broth dilution
Assay type in all cases: cell-based
Escherichia coli = settings: 18 hours at 35° C.
In short: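 Inoculum 5×10^5 CFU/mL; concentrations 64 to 0.06 μg/mL; MIC defined as lowest inhibitory level. Conducted by broth dilution under NCCLS guidelines.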

Enterococcus sp. = settings: broth dilution, 18 hours at 35° C.
In short: (§1)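 MIC, the lowest antibiotic concentration preventing growth, was read across 64-0.06 μg/mL with 5×10^5 CFU/mL inoculum. Method followed NCCLS M7-A2 broth dilution using Mueller-Hinton II; Gram-positive strains covered recent methicillin-, penicillin- and/or vancomycin-resistant clinical isolates.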

Staphylococcus sp. = settings: broth dilution, 18 hours at 35° C.
In short: as §1

Streptococcus sp. = settings: broth dilution, 18 hours at 35° C.
In short: as §1

MIC Escherichia coli (ATCC 25922) (Escherichia coli; Escherichia coli (ATCC 25922)): >128 µg/mL
MIC Escherichia coli (GC 4559) (Escherichia coli; Escherichia coli (GC 4559)): >128 µg/mL
MIC Escherichia coli (GC 4560) (Escherichia coli; Escherichia coli (GC 4560)): >128 µg/mL
MIC Enterococcus avium (GC 4558) (Enterococcus sp.; Enterococcus avium (GC 4558)): 128 µg/mL (≈ 114 µM)
MIC Enterococcus faecalis (ATCC 29212) (Enterococcus sp.; Enterococcus faecalis (ATCC 29212)): >128 µg/mL
MIC Enterococcus faecalis (GC 4553) (Enterococcus sp.; Enterococcus faecalis (GC 4553)): >128 µg/mL
MIC Enterococcus faecalis (GC 4554) (Enterococcus sp.; Enterococcus faecalis (GC 4554)): >128 µg/mL
MIC Enterococcus faecalis (GC 6189) (Enterococcus sp.; Enterococcus faecalis (GC 6189)): >128 µg/mL
MIC Enterococcus faecium (GC 2243) (Enterococcus sp.; Enterococcus faecium (GC 2243)): >128 µg/mL
MIC Enterococcus faecium (GC 4556) (Enterococcus sp.; Enterococcus faecium (GC 4556)): >128 µg/mL
MIC Enterococcus faecium (GC 4557) (Enterococcus sp.; Enterococcus faecium (GC 4557)): 128 µg/mL (≈ 114 µM)
MIC Enterococcus faecalis (ATCC 29212) (Enterococcus sp.; strain ATCC 29212): >128 µg/mL
MIC Enterococcus faecalis (GC 2242) (Enterococcus sp.; strain GC 2242): >128 µg/mL
MIC Enterococcus faecium (GC 2243) (Enterococcus sp.; strain GC 2243): >128 µg/mL
MIC Enterococcus faecalis (GC 2691) (Enterococcus sp.; strain GC 2691): >128 µg/mL
MIC Enterococcus faecalis (GC 3059) (Enterococcus sp.; strain GC 3059): >128 µg/mL
MIC Enterococcus faecalis (GC 4552) (Enterococcus sp.; strain GC 4552): >128 µg/mL
MIC Enterococcus faecalis (GC 4553) (Enterococcus sp.; strain GC 4553): >128 µg/mL
MIC Enterococcus faecalis (GC 4554) (Enterococcus sp.; strain GC 4554): >128 µg/mL
MIC Enterococcus faecium (GC 4556) (Enterococcus sp.; strain GC 4556): >128 µg/mL
MIC Enterococcus faecium (GC 4557) (Enterococcus sp.; strain GC 4557): 128 µg/mL (≈ 114 µM)
MIC Enterococcus avium (GC 4558) (Enterococcus sp.; strain GC 4558): 128 µg/mL (≈ 114 µM)
MIC Enterococcus faecalis (GC 6189) (Enterococcus sp.; strain GC 6189): >128 µg/mL
MIC Coagulase Negative Staphylococcus (GC 4547) (Staphylococcus sp.): >128 µg/mL
MIC Coagulase Negative Staphylococcus (GC 4548) (Staphylococcus sp.): >128 µg/mL
MIC Coagulase Negative Staphylococcus (GC 4549) (Staphylococcus sp.): >128 µg/mL
MIC Coagulase Negative Staphylococcus (GC 4551) (Staphylococcus sp.): >128 µg/mL
MIC Staphylococcus aureus (ATCC 29213) (Staphylococcus sp.): >128 µg/mL
MIC Staphylococcus aureus (GC 1131) (Staphylococcus sp.): >128 µg/mL
MIC Staphylococcus aureus (GC 3051) (Staphylococcus sp.): >128 µg/mL
MIC Staphylococcus aureus (GC 3053) (Staphylococcus sp.): >128 µg/mL
MIC Staphylococcus aureus (GC 4541) (Staphylococcus sp.): >128 µg/mL
MIC Staphylococcus aureus (GC 4542) (Staphylococcus sp.): >128 µg/mL
MIC Staphylococcus aureus (GC 4544) (Staphylococcus sp.): >128 µg/mL
MIC Staphylococcus aureus (GC 4545) (Staphylococcus sp.): >128 µg/mL
MIC Staphylococcus aureus-SMITH (GC 4543) (Staphylococcus sp.): >128 µg/mL
MIC Staphylococcus aureus (ATCC 29213) (Staphylococcus sp.; strain ATCC 29213): >128 µg/mL
MIC Staphylococcus aureus (GC 1131) (Staphylococcus sp.; strain GC 1131): >128 µg/mL
MIC Staphylococcus aureus (GC 3051) (Staphylococcus sp.; strain GC 3051): >128 µg/mL
MIC Staphylococcus aureus (GC 3053) (Staphylococcus sp.; strain GC 3053): >128 µg/mL
MIC Staphylococcus aureus (GC 4541) (Staphylococcus sp.; strain GC 4541): >128 µg/mL
MIC Staphylococcus aureus (GC 4542) (Staphylococcus sp.; strain GC 4542): >128 µg/mL
MIC Staphylococcus aureus (GC 4544) (Staphylococcus sp.; strain GC 4544): >128 µg/mL
MIC Staphylococcus aureus (GC 4545) (Staphylococcus sp.; strain GC 4545): >128 µg/mL
MIC Coagulase Negative Staphylococcus (GC 4547) (Staphylococcus sp.; strain GC 4547): >128 µg/mL
MIC Coagulase Negative Staphylococcus (GC 4548) (Staphylococcus sp.; strain GC 4548): >128 µg/mL
MIC Coagulase Negative Staphylococcus (GC 4549) (Staphylococcus sp.; strain GC 4549): >128 µg/mL
MIC Coagulase Negative Staphylococcus (GC 4551) (Staphylococcus sp.; strain GC 4551): >128 µg/mL
MIC Staphylococcus aureus-SMITH (GC 4543) (Staphylococcus sp.; strain SMITH GC 4543): >128 µg/mL
MIC Streptococcus pneumoniae (ATCC 6301) (Streptococcus sp.; strain ATCC 6301): >128 µg/mL
MIC Streptococcus pneumoniae (GC 1894) (Streptococcus sp.; strain GC 1894): 128 µg/mL (≈ 114 µM)
MIC Streptococcus pyogenes (GC 4563) (Streptococcus sp.; strain GC 4563): >128 µg/mL
MIC Streptococcus agalactiae (GC 4564) (Streptococcus sp.; strain GC 4564): >128 µg/mL
MIC Streptococcus pneumoniae (GC 4565) (Streptococcus sp.; strain GC 4565): >128 µg/mL
Structure (SMILES): N=C1NCC(C(O)C2NC(=O)C(Cc3ccc(OC4OC(CO)C(OC5OC(CO)C(O)C(O)C5O)C(O)C4O)cc3)NC(=O)C(Cc3ccccc3)NC(=O)CNC(=O)C(CO)NC(=O)C(C(O)C3CNC(=N)N3)NC2=O)N1 (stereo not drawn) [Example 296, Cyclo[glycylphenylalanyl-O-(4-O-hexopyranosylhexopyranosyl)tyrosyl-3-(2-iminoimidazolidin-4-yl)seryl-3-(2-iminoimidazolidin-4-yl)serylseryl]] (cyclo(GFY(X2)[ξEnduracididine(βξ-OH,4'ξ)][ξEnduracididine(βξ-OH,4'ξ)]S); configuration not given here)
MIC Staphylococcus haemolyticus (GC 4546) (Staphylococcus sp.): >128 µg/mL
MIC Staphylococcus haemolyticus (GC 4546) (Staphylococcus sp.; strain GC 4546): >128 µg/mL
